Experimental data from patent US4595757A, “N-alkylated benzo- and hetero-fused antisecretory agents” (American Home Products Corporation, priority 1984, dated 1986).

Key:
(H^+ +K^+)ATPase [1] = details: Fellenius, Nature 220, 159-160 (1981); cited from earlier work
gastric secretions = details: cited from earlier work
(H^+ +K^+)ATPase [2] = target: T1, (H^+ +K^+)ATPase (Rattus norvegicus, UniProt P09626); assay: Inhibition of dibutyryl cyclic AMP-stimulated 14C-aminopyrine uptake by rat gastric mucosal cells ((H^+ +K^+)ATPase inhibition); type: cell-based; details: 37° C., 2 hours
T1 construct: Rat gastric mucosal tissue is collected from 170-220 g male Sprague-Dawley rats; from tissue; host or cells: Dispersed gastric mucosal cells from male Sprague-Dawley rats (Pronase E digestion)
Description: The procedures for these tests and the results for some of the compounds of the invention are presented at the end of the following examples, which will serve to illustrate the present invention. The determination of the rate of gastric acid secretion cannot be measured quantitatively with isolated gastric glands or cells. However, the acid secretory response can be monitored semiquantitatively by measuring the uptake of a radiolabelled weak base, ^14 C-aminopyrine (^14 C-AP), which accumulates in the glands in proportion to the pH differences between the intraglandular acid compartments and the surrounding medium. The following assay uses this effect in order to measure the ability of the compounds of the invention to inhibit gastric acid secretion by blocking (H^+ +K^+)ATPase. Rat gastric mucosal tissue is collected from 170-220 g male Sprague-Dawley rats. […] The Pronase E is poured off and the tissues are rinsed in a small amount of DNAse solution (2.5 mg DNAse in 10 ml of Hanks Balanced Salt Solution (HBE) with addition of 1 mg/ml of BSA and 0.76 mg/ml of EGTA). 4 ml of stock DNAse solution is added to 76 ml of HBE and aerated before use. The pH of the solution is adjusted to 7.5 with 2M Tris Buffer. The comminuted tissue is passed through nylon mesh into DNAse solution and incubated at ambient temperature for 20 minutes. The cells obtained thereby are dispersed, filtered through nylon mesh and centrifuged at 1000 RPM's for 7 minutes. […] Immediately before use, 6.1 mg of L-cysteine is dissolved in 5 ml RPMI-BSA. The final incubation medium is (by volume) 80% RPMI-BSA, 10% glucose/PA/IMX solution and 10% L-cysteine solution. For the actual assay procedure, microfuge tubes are prepared as follows: Into each tube are placed (a) 100 μl of the stimulant dibutyryl cyclic AMP made up in H2 O or an equal volume of distilled H2 O; (b) 100 μl of drug made up in RPMSI-BSA or an equal volume of RPMI-BSA; (c) 750 μl of the cell suspension; and (d) 50 μl of ^14 C-aminopyrine solution. The tubes are shaken in a 37° C. water bath in a O2 /CO2 (95/5%) atmosphere at about 110 cycles/minute, and incubated for 2 hours. The tubes are then microfuged for 30 seconds, the pellet surface rinsed with 500 μl RPMI-BSA and the cells dispersed in 500 μl distilled H2 O. The cells are then transferred to mini-scintillation vials with 5.75 ml of Hydrofluor, vortexed and counted in a Packard liquid scintillation counter. The inhibition of ^14 C-AP uptake is quantified from the scintillation count results and the IC50 for test compounds is calculated. The results for some of the compounds of the invention and for the two known (H^+ +K^+)ATPase inhibitors, omeprazole and timoprazole, are given in Table I.

[3] = test system: spontaneous gastric secretions; assay: Pyloric-ligated rat assay (inhibition of gastric acid output); type: in vivo; details: male rats, intraduodenal, 4 hours after pylorus ligation
Experimental: The procedures for these tests and the results for some of the compounds of the invention are presented at the end of the following examples, which will serve to illustrate the present invention. […] Male Charles River SC/CD rats weighing 190-260 gm are fasted for 24 hours with access to tap water ad libitum until the test. Groups of 10 rats each are assigned to either control or drug treatment. Under […] anesthesia, a midline laparotomy is performed and a ligature is tightly secured around the pylorus. Either control vehicle (0.25% aqueous methylcellulose) or drug in control vehicle is administered intraduodenally, 1 ml/kg, immediately after ligating the pylorus. The abdominal incision is closed with wound clips and the rats (2 per cage) are allowed to recover from anesthesia. After four hours the rats are sacrificed by CO2 asphyxiation. Their stomachs are removed and the accumulated gastric contents are emptied into graduated tubes. The gastric samples are centrifuged for 10 minutes. Samples contaminated with food or fecal material are discarded. The volume of gastric juice is recorded and the acid concentration of 1.0 ml sample aliquots is measured by electrometric titration to pH 7.0 using 0.1N sodium hydroxide. Titratable acid output is calculated in microequivalents and the percent inhibition of acid output is calculated as follows: [formula] The test results for a compound of the invention and for the known (H^+ +K^+)ATPase inhibitors omeprazole and timoprazole, expressed as ED50 's, are as follows: […]

[4] = test system: cold restraint/stress ulcerogenesis; assay: Cold restraint/stress ulcerogenesis assay (cytoprotective effect); type: in vivo; details: Rattus norvegicus; male rats, oral, cold (4±1° C.) restraint; read-out: Inhibition, ED50 (cold restraint/stress ulcers)
Experimental: The procedures for these tests and the results for some of the compounds of the invention are presented at the end of the following examples, which will serve to illustrate the present invention. The ability of the compounds of the invention to exert a cytoprotective effect is examined in the cold restraint/stress ulcerogenesis assay. Male Charles River rats weighing between 120-160 gm are deprived of food for 18 hours with water ad libitum. The rats are divided into groups of ten and dosed by the oral route with test compound, 50 mg/kg, or vehicle control, 0.5% carboxymethylcellulose, in a volume of 5 ml/kg. Immediately after dosing, the animals are inserted into aluminum restraining tubes measuring 15/8 inches in diameter by 8 inches and placed in the cold (4±1° C.). […] At the end of the test period the animals are killed, the duodenum and esophagus ligated, and the stomach removed. The stomachs are inflated with water, opened along the lesser curvature, spread over the index finger, and the mucosa wiped off to expose the submucosa. The number of hemorrhage sites in the submucosa are counted by visual observation and recorded. Compounds are reported by determining (A) a percent inhibition which is calculated as follows: [formula] or (B) a mean ulcer number ±S.E.M. for each drug treated group and comparing it to that calculated for the control group. The test results for a compound of the invention and for the known (H^+ +K^+)ATPhase inhibitors omeprazole and timoprazole, expressed as ED50 's, are as follows: […]

[5] = test system: isolated guinea pig gastric mucosa; details: dibutyryl cyclic AMP stimulation after pretreatment with theophylline; cited from earlier work
H2-receptor = target: T2, H2-receptor (Cavia porcellus, UniProt P47747); assay: Histamine-induced positive chronotropic response in the spontaneously beating right atrium of the guinea pig heart (H2-receptor antagonism); details: at a level of 1×10^-6 M; 30 minutes after addition
T2 construct: from tissue; host or cells: Guinea pig right atrium, spontaneously beating
Experimental: The tissue is allowed to stabilize over 1 hour. Individual contractions are recorded with a force-displacement transducer through a strain gauge coupler. […] The test compound is added to the tissue bath at the desired final concentration. Thirty minutes after addition of the compound, a fresh histamine dose response curve is again obtained. Then the response to histamine in the presence of antagonist is compared to the histamine control response. This procedure is repeated, using fresh tissues, for each concentration of antagonist tested.

T1 sequence (P09626 whole entry): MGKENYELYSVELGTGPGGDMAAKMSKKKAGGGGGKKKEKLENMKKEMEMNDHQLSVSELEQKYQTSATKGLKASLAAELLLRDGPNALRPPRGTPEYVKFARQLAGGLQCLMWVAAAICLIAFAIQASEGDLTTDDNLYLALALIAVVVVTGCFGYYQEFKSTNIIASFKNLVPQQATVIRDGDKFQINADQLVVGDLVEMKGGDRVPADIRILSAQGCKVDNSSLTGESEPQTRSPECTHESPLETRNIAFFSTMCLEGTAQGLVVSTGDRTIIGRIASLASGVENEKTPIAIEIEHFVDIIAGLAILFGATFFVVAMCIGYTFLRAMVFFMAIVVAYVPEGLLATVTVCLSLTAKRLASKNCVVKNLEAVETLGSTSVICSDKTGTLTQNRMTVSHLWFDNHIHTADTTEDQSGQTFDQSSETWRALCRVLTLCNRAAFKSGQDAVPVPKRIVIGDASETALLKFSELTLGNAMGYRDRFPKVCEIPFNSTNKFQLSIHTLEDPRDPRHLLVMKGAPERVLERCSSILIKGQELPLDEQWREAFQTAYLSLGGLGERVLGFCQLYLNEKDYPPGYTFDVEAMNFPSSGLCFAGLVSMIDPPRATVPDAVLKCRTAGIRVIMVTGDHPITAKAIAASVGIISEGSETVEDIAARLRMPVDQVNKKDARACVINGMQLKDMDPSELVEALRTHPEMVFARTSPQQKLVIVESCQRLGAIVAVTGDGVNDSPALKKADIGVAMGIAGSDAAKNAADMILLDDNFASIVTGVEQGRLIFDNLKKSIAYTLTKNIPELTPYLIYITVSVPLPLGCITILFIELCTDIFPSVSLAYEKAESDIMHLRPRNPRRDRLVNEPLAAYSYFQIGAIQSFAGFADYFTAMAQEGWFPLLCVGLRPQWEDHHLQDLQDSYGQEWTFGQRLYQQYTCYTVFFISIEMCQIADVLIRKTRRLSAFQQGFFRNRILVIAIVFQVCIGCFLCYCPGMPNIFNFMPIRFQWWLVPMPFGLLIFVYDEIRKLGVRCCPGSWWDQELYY
T1 sequence (P18598 whole entry partner): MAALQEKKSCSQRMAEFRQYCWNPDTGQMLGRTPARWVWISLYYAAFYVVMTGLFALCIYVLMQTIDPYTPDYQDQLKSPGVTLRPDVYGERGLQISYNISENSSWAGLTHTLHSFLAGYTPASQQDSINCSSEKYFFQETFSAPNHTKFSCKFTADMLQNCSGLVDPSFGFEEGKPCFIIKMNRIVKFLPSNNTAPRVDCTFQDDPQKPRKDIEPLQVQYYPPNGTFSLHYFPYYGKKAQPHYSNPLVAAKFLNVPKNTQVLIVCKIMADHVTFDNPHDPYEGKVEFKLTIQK
T2 sequence (P47747 whole entry): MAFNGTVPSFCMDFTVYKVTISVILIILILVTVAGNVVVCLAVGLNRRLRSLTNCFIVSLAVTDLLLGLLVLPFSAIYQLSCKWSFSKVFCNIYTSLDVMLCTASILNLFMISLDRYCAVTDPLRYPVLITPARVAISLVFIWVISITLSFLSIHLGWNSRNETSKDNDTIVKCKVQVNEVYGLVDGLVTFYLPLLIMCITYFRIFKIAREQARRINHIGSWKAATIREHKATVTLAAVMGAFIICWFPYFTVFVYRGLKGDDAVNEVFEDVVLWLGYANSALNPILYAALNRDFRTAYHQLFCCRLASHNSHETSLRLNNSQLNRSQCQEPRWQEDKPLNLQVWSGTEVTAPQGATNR

SMILES | IC50 ((H^+ +K^+)ATPase [2]) [nM] | ED50 [3] [mg/kg] | ED50 [4] [mg/kg] | also measured
CN/C(=N/CCSCc1nc[nH]c1C)NC#N [cimetidine] |  |  |  | inhibition of proton transport by inhibition of (H^+ +K^+)ATPase ((H^+ +K^+)ATPase [1]): devoid of this activity; inhibition of gastric secretions (gastric secretions): inhibit only those gastric secretions which were agonized by histamine
O=S1(=O)N=C(N(CCCOc2cccc(CN3CCCCC3)c2)Cc2ccccc2)c2cscc21 [Example 1, N-(Phenylmethyl)-N-[3-[3-(1-piperidinylmethyl)phenoxy]propyl]thieno[3,4-d]isothiazol-3-amine 1,1-dioxide, ethanedioate (1:1)] | 400 | 8 | 6 | H2-receptor antagonist activity (guinea pig right atrium) (H2-receptor): inactive
O=S1(=O)N=C(N(CCCOc2cccc(CN3CCCCC3)c2)Cc2ccccc2)c2ccccc21 [Example 2, N-(Phenylmethyl)-N-[3-[3-(1-piperidinylmethyl)phenoxy]propyl]-1,2-benzoisothiazol-3-amine 1,1-dioxide, ethanedioate] | 100 |  |  | 

More lines, main results first:

IC50 ((H^+ +K^+)ATPase [2]) [nM] | SMILES | ED50 [3] [mg/kg] | ED50 [4] [mg/kg] | also measured
10 | COc1ccc2[nH]c([S+]([O-])Cc3ncc(C)c(OC)c3C)nc2c1 (centres unmarked) [omeprazole] | 6 | 12 | inhibition of stimulated secretion in isolated guinea pig gastric mucosa [5]: such stimulated secretion can be inhibited by omeprazole; inhibition of proton transport by inhibition of (H^+ +K^+)ATPase ((H^+ +K^+)ATPase [1]): only omeprazole inhibited proton transport by the inhibition of (H^+ +K^+)ATPase
10000 | Nc1c(N(CCCOc2cccc(CN3CCCCC3)c2)Cc2ccc3c(c2)OCO3)c(=O)c1=O [Example 4] |  |  | 
5000 | O=S1(=O)N=C(N(CCCOc2cccc(CN3CCCCC3)c2)Cc2ccc3c(c2)OCO3)c2cscc21 [Example 3, N-(1,3-benzodioxol-5-ylmethyl)-N-[3-[3-(1-piperidinylmethyl)phenoxy]propyl]thieno[3,4-d]isothiazol-3-amine 1,1-dioxide, ethanedioate (1:1)] |  |  | 
1000 | [O-][S+](Cc1ccccn1)c1nc2ccccc2[nH]1 (centres unmarked) [timoprazole] | 4 | 8 | 
